Results taken from ChEMBL document CHEMBL3988442, “University of Dundee, Small-Polar-MMV Screening Library” (2021).
Where “and” joins values, the source holds several entries; their conditions need not be identical. Equal entries are not always repeated.

Experiments:
[1] = target: Polyketide synthase Pks13 (Mycobacterium tuberculosis (strain ATCC 25618 / H37Rv), UniProt I6X8D2); test: Mycobacterium tuberculosis Polyketide synthase 13 Thioesterase (PKS13); assay type: functional
ClpP1P2 = ClpP1P2 (Mycobacterium tuberculosis (strain ATCC 25618 / H37Rv), UniProt P9WPC3+P9WPC5); test: in vitro assay to detect presence of AMC directly proportional to the activity of ClpP1P2. GHDDI collaboration.; assay type: functional
[2] = microbe, parasite or virus in culture; details: Mycobacterium tuberculosis, 96 h, read-out: pIC50 (converted)
[3] = microbe, parasite or virus in culture; details: Mycobacterium tuberculosis, 72 h, read-out: pIC50 (converted)
Plasmodium falciparum = test: Calibr Malaria Delayed Death Assay SOP; assay type: functional, organism-based
Histidine--tRNA ligase = target: T1, Histidine--tRNA ligase (Leishmania infantum, UniProt A4I591); test: Leishmania infantum Histidine tRNA synthetase (LdHisRS); assay type: functional
T1 sequence (A4I591 whole entry): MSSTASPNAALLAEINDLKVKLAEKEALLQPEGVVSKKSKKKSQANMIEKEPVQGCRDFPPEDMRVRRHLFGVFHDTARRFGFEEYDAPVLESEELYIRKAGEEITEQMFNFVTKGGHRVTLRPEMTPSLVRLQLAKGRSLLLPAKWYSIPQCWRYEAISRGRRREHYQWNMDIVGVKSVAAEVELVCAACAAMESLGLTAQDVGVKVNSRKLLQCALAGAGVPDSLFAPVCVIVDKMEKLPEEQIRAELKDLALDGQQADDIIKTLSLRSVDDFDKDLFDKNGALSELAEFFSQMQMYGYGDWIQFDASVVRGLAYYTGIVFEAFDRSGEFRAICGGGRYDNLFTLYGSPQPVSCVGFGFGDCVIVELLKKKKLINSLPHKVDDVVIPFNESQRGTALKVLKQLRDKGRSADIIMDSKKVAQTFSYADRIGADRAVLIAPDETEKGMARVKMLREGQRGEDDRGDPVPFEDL

Leishmania donovani = test: Leishmania intramacrophage assay; assay type: functional, organism-based; details: Leishmania donovani
Tryptophan--tRNA ligase = Tryptophan--tRNA ligase (Mycobacterium tuberculosis (strain ATCC 25618 / H37Rv), UniProt P9WFT3); test: Biochemical assay for Mt-TrpRS; assay type: functional
Tryptophan--tRNA ligase, sequence (P9WFT3 whole entry): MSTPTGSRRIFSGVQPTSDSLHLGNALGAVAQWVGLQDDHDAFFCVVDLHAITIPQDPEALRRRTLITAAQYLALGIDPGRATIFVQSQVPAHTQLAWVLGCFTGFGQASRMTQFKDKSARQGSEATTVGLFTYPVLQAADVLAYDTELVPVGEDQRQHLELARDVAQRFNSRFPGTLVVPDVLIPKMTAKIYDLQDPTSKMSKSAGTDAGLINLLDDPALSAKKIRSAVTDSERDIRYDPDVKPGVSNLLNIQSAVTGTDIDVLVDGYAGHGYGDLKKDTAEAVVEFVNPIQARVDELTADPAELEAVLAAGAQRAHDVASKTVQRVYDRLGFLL

Polyketide synthase Pks13, sequence (I6X8D2 whole entry): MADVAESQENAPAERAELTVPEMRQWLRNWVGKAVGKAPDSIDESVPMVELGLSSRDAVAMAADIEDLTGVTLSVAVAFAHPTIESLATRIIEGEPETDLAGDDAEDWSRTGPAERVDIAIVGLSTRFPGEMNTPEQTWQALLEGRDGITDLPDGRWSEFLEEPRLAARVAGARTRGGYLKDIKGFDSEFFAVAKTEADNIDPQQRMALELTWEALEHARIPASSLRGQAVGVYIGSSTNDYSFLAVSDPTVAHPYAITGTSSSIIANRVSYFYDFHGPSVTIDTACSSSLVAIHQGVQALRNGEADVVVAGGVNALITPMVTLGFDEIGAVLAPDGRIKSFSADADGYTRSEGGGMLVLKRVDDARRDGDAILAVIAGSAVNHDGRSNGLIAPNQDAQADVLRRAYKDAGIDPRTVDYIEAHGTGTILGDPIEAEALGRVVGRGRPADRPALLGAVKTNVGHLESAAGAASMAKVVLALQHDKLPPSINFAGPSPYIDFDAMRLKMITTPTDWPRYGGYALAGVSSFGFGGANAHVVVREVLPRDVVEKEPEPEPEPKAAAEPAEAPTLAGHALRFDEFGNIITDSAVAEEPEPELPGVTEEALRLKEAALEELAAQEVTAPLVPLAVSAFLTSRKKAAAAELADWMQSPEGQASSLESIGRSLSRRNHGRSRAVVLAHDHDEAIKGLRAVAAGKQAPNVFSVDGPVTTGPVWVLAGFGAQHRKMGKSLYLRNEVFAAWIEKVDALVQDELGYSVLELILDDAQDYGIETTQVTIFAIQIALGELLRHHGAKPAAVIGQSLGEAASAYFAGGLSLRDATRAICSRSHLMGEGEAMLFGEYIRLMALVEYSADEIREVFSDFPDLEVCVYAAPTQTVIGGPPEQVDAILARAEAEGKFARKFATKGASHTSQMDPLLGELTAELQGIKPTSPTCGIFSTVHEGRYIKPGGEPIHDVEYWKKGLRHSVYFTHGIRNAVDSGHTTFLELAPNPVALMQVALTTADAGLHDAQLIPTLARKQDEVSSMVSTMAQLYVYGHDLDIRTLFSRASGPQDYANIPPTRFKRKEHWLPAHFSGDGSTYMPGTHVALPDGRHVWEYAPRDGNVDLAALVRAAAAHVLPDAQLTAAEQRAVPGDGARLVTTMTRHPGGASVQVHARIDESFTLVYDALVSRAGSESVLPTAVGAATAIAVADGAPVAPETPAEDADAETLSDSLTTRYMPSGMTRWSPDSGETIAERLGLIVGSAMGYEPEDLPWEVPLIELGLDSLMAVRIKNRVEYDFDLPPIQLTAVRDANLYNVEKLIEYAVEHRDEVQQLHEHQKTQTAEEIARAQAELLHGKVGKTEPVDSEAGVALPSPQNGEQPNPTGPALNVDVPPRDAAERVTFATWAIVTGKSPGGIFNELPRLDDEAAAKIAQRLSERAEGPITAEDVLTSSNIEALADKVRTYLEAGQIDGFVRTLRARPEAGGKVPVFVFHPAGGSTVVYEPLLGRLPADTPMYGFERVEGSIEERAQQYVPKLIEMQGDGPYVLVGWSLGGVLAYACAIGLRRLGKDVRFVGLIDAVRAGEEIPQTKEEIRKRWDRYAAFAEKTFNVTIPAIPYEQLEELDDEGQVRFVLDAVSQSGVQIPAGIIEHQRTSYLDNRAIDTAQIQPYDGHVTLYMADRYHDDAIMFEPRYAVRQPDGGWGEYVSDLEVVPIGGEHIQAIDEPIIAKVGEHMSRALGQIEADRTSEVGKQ
ClpP1P2, sequence (P9WPC5 whole entry): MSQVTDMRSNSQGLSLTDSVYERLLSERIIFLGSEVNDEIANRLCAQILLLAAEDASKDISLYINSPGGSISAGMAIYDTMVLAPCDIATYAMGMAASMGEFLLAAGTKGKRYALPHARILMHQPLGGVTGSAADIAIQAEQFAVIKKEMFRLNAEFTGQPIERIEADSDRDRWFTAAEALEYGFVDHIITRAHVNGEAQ
ClpP1P2, sequence (P9WPC3 whole entry): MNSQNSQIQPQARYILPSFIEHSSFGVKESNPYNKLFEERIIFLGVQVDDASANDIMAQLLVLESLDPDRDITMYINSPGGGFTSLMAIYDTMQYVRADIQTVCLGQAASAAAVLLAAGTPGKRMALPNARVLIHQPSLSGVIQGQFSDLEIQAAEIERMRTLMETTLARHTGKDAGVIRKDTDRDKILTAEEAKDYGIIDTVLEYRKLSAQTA

| SMILES | IC50 [1] | IC50 (ClpP1P2) [µM] | also measured |
| --- | --- | --- | --- |
| Cn1c(Cn2ncc(N3CCCCC3)cc2=O)nc2ccccc21 | > 100 µM | > 100 | – |
| COc1cnc(N2CCN(C)CC2)nc1-c1ccnn1C | 23.7 µM and 24.9 µM | > 100 | – |
| COc1ccc(CCC(C)Nc2cccc(SC)c2)cc1 (stereo unspecified) | 23 µM and 23.6 µM | – | IC50 [2]: 14.3 µM; IC50 [3]: 14.1 µM |
| CCc1[nH]c2c(CNc3nc(C)cc(NC)n3)cc(C)cc2c1C | > 100 µM | – | pIC50 (Plasmodium falciparum): 6.194; IC50 (Plasmodium falciparum; Plasmodium falciparum): 0.657 µM; IC50 [2]: 30.7 µM; IC50 [3]: 23.7 µM |
| CCn1cc(-c2cc(-c3ccn(C)c3)nc(N)c2C#N)cc1C#N | 51.8 µM and 43.6 µM | > 100 | – |
| NC(=O)c1ccccc1-n1cc(-c2cccc(C(=O)O)c2)cn1 | > 100 µM | – | IC50 (Histidine--tRNA ligase): 88.1 µM and > 100 µM |
| COCCNc1nc2c(c(NCC3CCOC3)n1)CCNCC2 (stereo unspecified) | > 100 µM | – | IC50 (Leishmania donovani): > 50.1 µM |
| O=c1[nH]c(NC2CCCC2)nc2nccc(-c3ccco3)c12 | > 100 µM | > 100 | – |
| CC(C)c1cc(N2CCC(N)CC2)n2nccc2n1 | > 100 µM | – | IC50 (Leishmania donovani): > 50.1 µM |
| CC(C)c1cc(CN2CCC(CC(=O)O)CC2)no1 | 12.3 µM and 7.76 µM | – | IC50 (Tryptophan--tRNA ligase): > 195 µM |
| COCC(=O)N1CCC(c2cc(C(F)(F)F)n3ccnc3n2)CC1 | 28.4 µM and 36.3 µM | > 100 | – |
| CNC(=O)COc1ccc(CNc2cncc(-n3cccn3)n2)cc1 | 11.8 µM and > 100 µM | > 100 | – |
| COCc1ccc(CNc2cncc(-n3cccn3)n2)cc1 | > 57.5 µM and 18.9 µM | > 100 | – |
| NS(=O)(=O)Cc1ccc(CNc2cncc(-n3cccn3)n2)cc1 | 19.4 µM and > 100 µM | > 100 | – |
| Cc1cnn(CC(C)NCC(=O)NCCOc2ccccc2)c1 (stereo unspecified) | > 100 µM | – | – |
| COC(=O)CNC(=O)c1sc(-c2ccc(Cl)s2)nc1C | 22.3 µM and > 100 µM | > 100 | – |
| Cc1nc(-c2ccc(Cl)s2)sc1C(=O)NC(C)(C)C(N)=O | > 100 µM and 21.1 µM | > 100 | – |
| Cc1nc(-c2ccc(Cl)s2)sc1C(=O)NCCCC(N)=O | > 100 µM and 15.1 µM | > 100 | – |
| Cc1ccc(C(=O)N(C)Cc2cc(C)on2)cn1 | > 100 µM | > 100 | – |

| SMILES | IC50 [1] | IC50 (ClpP1P2) [µM] | also measured |
| --- | --- | --- | --- |
| c1csc(-c2noc(CCCN3CCCC3Cn3cncn3)n2)c1 (stereo unspecified) | > 100 µM | – | – |
| Cc1nc(C)n(C2CCCN(C(=O)c3nc(C)n4ccccc34)C2)n1 (stereo unspecified) | 8.78 µM and 12.7 µM | > 100 | – |
| CCc1nc2n(n1)CC(NCc1ncc(-c3ccccc3)o1)CC2 (stereo unspecified) | > 100 µM | – | – |
| CCc1nc(C2CCCN2C(=O)c2nc(C)n3ccccc23)no1 (stereo unspecified) | 8.2 µM and 6.66 µM | > 100 | – |
| CC(O)CN1CCC(CNCc2c[nH]nc2C(C)(C)C)CC1 (stereo unspecified) | > 100 µM | – | IC50 [2]: 35.4 µM; IC50 [3]: 45.6 µM |
| CN(CC1CCCCC1)C(=O)c1ccc(-n2ncc(C#N)c2N)cc1 | 40.8 µM and 6.64 µM | – | – |
| CCc1n[nH]c(C2CN(C(=O)c3nc(C)n4ccccc34)CCO2)n1 (stereo unspecified) | 18.2 µM and 11.7 µM | > 100 | – |
| Cn1ccc(C(=O)NCc2cccc(NC(=O)C3CCC3)c2)cc1=O | > 100 µM | – | – |
| CC(C)c1nc(CN(C)C2CCN(CCNS(C)(=O)=O)C2)no1 (stereo unspecified) | > 100 µM | – | – |
| CC(C)Nc1nc2c(cc1C(=O)NCC1CC1)CCN(S(C)(=O)=O)CC2 | 20.5 µM and 23.8 µM | > 100 | – |
| COc1cccc(CN2CCC3(COCc4cnc(N(C)C)nc43)C2)c1 (stereo unspecified) | > 100 µM | – | IC50 [2]: > 50.1 µM; IC50 [3]: > 50.1 µM |
| O=c1ccc2c(n1CC1CCOCC1)CCN(Cc1ccoc1)CC2 | > 100 µM | > 100 | – |
| CC(C)(CO)CNC(=O)c1cc(-c2cc[nH]n2)n2ccccc12 | 22.5 µM and 17.5 µM | > 100 | – |
| CNC(=O)c1cc2c(nc1NCC(C)C)CCN(c1ccncn1)CC2 | 25.7 µM and 29.5 µM | > 100 | – |
| CNC(=O)c1cc2c(nc1NCC1CC1)CCN(S(C)(=O)=O)CC2 | 14.8 µM and 22.2 µM | > 100 | – |
| CNC(=O)c1cc2c(nc1NCC(C)C)CCN(CC1CC1)CC2 | 21 µM and 28.8 µM | > 100 | – |
| CC(C)Nc1nc2c(cc1C(=O)NCC1CC1)CCN(CC1CC1)CC2 | 14.7 µM and 35.6 µM | > 100 | – |
| CC(C)Nc1nc2c(cc1C(=O)NCC1CC1)CCN(C)CC2 | 30.6 µM and 15.6 µM | > 100 | – |
| CC(C)Nc1nc2c(cc1C(=O)NCC1CC1)CCNCC2 | 19.7 µM and 19.3 µM | > 100 | – |
